PubChem BioAssay AID1919001 (Molecular Pharmacology Branch, DTP, NCI, 2023)
“And” between values parts separate entries of the source, which are not always exact repeats. Equal entries are not always repeated.

Test system: 699152-130-R-J1-PDC complex spheroid growth
Assay: Anticancer human tumor 699152-130-R-J1-PDC patient-derived pancreatic carcinoma cell line growth inhibition [AhR]
Conditions: for viability, T/C: stronger effect = lower value
Summary of the method: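 Agents were dosed in half-log steps down from roughly clinical Cmax, or from 10 microM where Cmax was unknown, alone and with AhR antagonists. Read-out: percent test/control growth of tumor spheroids containing HUVEC and MSC stromal cells.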

[1] = curve of first compound, second compound 0.1 µM
[2] = curve of first compound, second compound 0.316 µM
[3] = curve of first compound, second compound 1 µM
[4] = curve of first compound, second compound 3.16 µM
[5] = curve of first compound, second compound 10 µM
[6] = second compound 0.1 µM, first compound 0.00949 µM
[7] = second compound 0.1 µM, first compound 0.03 µM
[8] = second compound 0.1 µM, first compound 0.0949 µM
[9] = second compound 0.1 µM, first compound 0.3 µM
[10] = second compound 0.316 µM, first compound 0.00949 µM
[11] = second compound 0.316 µM, first compound 0.03 µM
[12] = second compound 0.316 µM, first compound 0.0949 µM
[13] = second compound 0.316 µM, first compound 0.3 µM
[14] = second compound 1 µM, first compound 0.00949 µM
[15] = second compound 1 µM, first compound 0.03 µM
[16] = second compound 1 µM, first compound 0.0949 µM
[17] = second compound 1 µM, first compound 0.3 µM
[18] = second compound 3.16 µM, first compound 0.00949 µM
[19] = second compound 3.16 µM, first compound 0.03 µM
[20] = second compound 3.16 µM, first compound 0.0949 µM
[21] = second compound 3.16 µM, first compound 0.3 µM
[22] = second compound 10 µM, first compound 0.00949 µM
[23] = second compound 10 µM, first compound 0.03 µM
[24] = second compound 10 µM, first compound 0.0949 µM
[25] = second compound 10 µM, first compound 0.3 µM
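Further: compound exposure lasted 7 days after spheroids had grown for 3 days.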

CC(C)CC(NC(=O)C(Cc1ccccc1)NC(=O)c1cnccn1)B(O)O (configuration not stated)
viability, T/C (compound 0.000949 µM): 107% and 97.5% and 95.3%
viability, T/C (compound 0.003 µM): 107% and 101% and 94.5%
viability, T/C (compound 0.00949 µM): 99.3% and 79% and 30.8%
viability, T/C (compound 0.03 µM): 1.12% and 0.95% and 0.7%
viability, T/C (compound 0.0949 µM): 0.51% and 0.48% and 0.69%
viability, T/C (compound 0.3 µM): 0.46% and 0.87% and 0.49%
IC50 (curve of compound): 0.0169 µM and 0.0145 µM and 0.0067 µM

CC1(C)CCC(CN2CCN(c3ccc(C(=O)NS(=O)(=O)c4ccc(NCC5CCOCC5)c([N+](=O)[O-])c4)c(Oc4cnc5[nH]ccc5c4)c3)CC2)=C(c2ccc(Cl)cc2)C1 + CC(CO)NC(=O)c1cc(-c2ccc(Cl)cc2)nn(-c2cnn(C)c2)c1=O
IC50 [1]: > 10 µM
IC50 [2]: > 10 µM
IC50 [3]: > 10 µM
IC50 [4]: > 10 µM
IC50 [5]: > 10 µM
viability, T/C (second compound 0.1 µM, first compound 0.0316 µM): 102%
viability, T/C (second compound 0.1 µM, first compound 0.1 µM): 119%
viability, T/C (second compound 0.1 µM, first compound 0.316 µM): 95.8%
viability, T/C (second compound 0.1 µM, first compound 1 µM): 111%
viability, T/C (second compound 0.1 µM, first compound 3.16 µM): 89.1%
viability, T/C (second compound 0.1 µM, first compound 10 µM): 60.5%
viability, T/C (second compound 0.316 µM, first compound 0.0316 µM): 104%
viability, T/C (second compound 0.316 µM, first compound 0.1 µM): 109%
viability, T/C (second compound 0.316 µM, first compound 0.316 µM): 96.5%
viability, T/C (second compound 0.316 µM, first compound 1 µM): 92.2%
viability, T/C (second compound 0.316 µM, first compound 3.16 µM): 87.1%
viability, T/C (second compound 0.316 µM, first compound 10 µM): 63.1%
viability, T/C (second compound 1 µM, first compound 0.0316 µM): 96.2%
viability, T/C (second compound 1 µM, first compound 0.1 µM): 108%
viability, T/C (second compound 1 µM, first compound 0.316 µM): 105%
viability, T/C (second compound 1 µM, first compound 1 µM): 102%
viability, T/C (second compound 1 µM, first compound 3.16 µM): 95.4%
viability, T/C (second compound 1 µM, first compound 10 µM): 66%
viability, T/C (second compound 3.16 µM, first compound 0.0316 µM): 98%
viability, T/C (second compound 3.16 µM, first compound 0.1 µM): 100%
viability, T/C (second compound 3.16 µM, first compound 0.316 µM): 102%
viability, T/C (second compound 3.16 µM, first compound 1 µM): 83%
viability, T/C (second compound 3.16 µM, first compound 3.16 µM): 96.9%
viability, T/C (second compound 3.16 µM, first compound 10 µM): 65%
viability, T/C (second compound 10 µM, first compound 0.0316 µM): 90.8%
viability, T/C (second compound 10 µM, first compound 0.1 µM): 91.3%
viability, T/C (second compound 10 µM, first compound 0.316 µM): 97.5%
viability, T/C (second compound 10 µM, first compound 1 µM): 84.2%
viability, T/C (second compound 10 µM, first compound 3.16 µM): 84.4%
viability, T/C (second compound 10 µM, first compound 10 µM): 73.7%

CCc1c2c(nc3ccc(O)cc13)-c1cc3c(c(=O)n1C2)COC(=O)[C@]3(O)CC + CC(CO)NC(=O)c1cc(-c2ccc(Cl)cc2)nn(-c2cnn(C)c2)c1=O
IC50 [1]: 0.0182 µM
IC50 [2]: 0.0264 µM
IC50 [3]: 0.0421 µM
IC50 [4]: 0.0221 µM
IC50 [5]: 0.0473 µM
viability, T/C (second compound 0.1 µM, first compound 0.000949 µM): 89%
viability, T/C (second compound 0.1 µM, first compound 0.003 µM): 83.5%
viability, T/C [6]: 56.5%
viability, T/C [7]: 46.2%
viability, T/C [8]: 48%
viability, T/C [9]: 35.7%
viability, T/C (second compound 0.316 µM, first compound 0.000949 µM): 83.3%
viability, T/C (second compound 0.316 µM, first compound 0.003 µM): 75.5%
viability, T/C [10]: 58.9%
viability, T/C [11]: 49.4%
viability, T/C [12]: 44.8%
viability, T/C [13]: 41.3%
viability, T/C (second compound 1 µM, first compound 0.000949 µM): 85.7%
viability, T/C (second compound 1 µM, first compound 0.003 µM): 75.4%
viability, T/C [14]: 61.3%
viability, T/C [15]: 51.4%
viability, T/C [16]: 47.2%
viability, T/C [17]: 41.5%
viability, T/C (second compound 3.16 µM, first compound 0.000949 µM): 72.3%
viability, T/C (second compound 3.16 µM, first compound 0.003 µM): 64.4%
viability, T/C [18]: 57.2%
viability, T/C [19]: 45.3%
viability, T/C [20]: 42%
viability, T/C [21]: 31.4%
viability, T/C (second compound 10 µM, first compound 0.000949 µM): 71.9%
viability, T/C (second compound 10 µM, first compound 0.003 µM): 69.4%
viability, T/C [22]: 61.7%
viability, T/C [23]: 52.6%
viability, T/C [24]: 45.9%
viability, T/C [25]: 28.4%

O=C(C=Cn1cnc(-c2cc(C(F)(F)F)cc(C(F)(F)F)c2)n1)NNc1cnccn1 + Cc1cncc(-c2nc(NCCc3c[nH]c4ccccc34)c3ncn(C(C)C)c3n2)c1
IC50 [1]: > 3 µM
IC50 [2]: > 3 µM
IC50 [3]: > 3 µM
IC50 [4]: > 3 µM
IC50 [5]: < 0.00949 µM
viability, T/C [6]: 97.5%
viability, T/C [7]: 97.4%
viability, T/C [8]: 86.4%
viability, T/C [9]: 81.4%
viability, T/C (second compound 0.1 µM, first compound 0.949 µM): 69.4%
viability, T/C (second compound 0.1 µM, first compound 3 µM): 67.8%
viability, T/C [10]: 83.2%
viability, T/C [11]: 92%
viability, T/C [12]: 89.2%
viability, T/C [13]: 76.3%
viability, T/C (second compound 0.316 µM, first compound 0.949 µM): 76.8%
viability, T/C (second compound 0.316 µM, first compound 3 µM): 74.2%
viability, T/C [14]: 102%
viability, T/C [15]: 111%
viability, T/C [16]: 92.9%
viability, T/C [17]: 87.1%
viability, T/C (second compound 1 µM, first compound 0.949 µM): 79.7%
viability, T/C (second compound 1 µM, first compound 3 µM): 72.2%
viability, T/C [18]: 118%
viability, T/C [19]: 113%
viability, T/C [20]: 93.9%
viability, T/C [21]: 97.2%
viability, T/C (second compound 3.16 µM, first compound 0.949 µM): 76.2%
viability, T/C (second compound 3.16 µM, first compound 3 µM): 70.5%
viability, T/C [22]: 20.1%
viability, T/C [23]: 22.6%
viability, T/C [24]: 25.2%
viability, T/C [25]: 26.4%
viability, T/C (second compound 10 µM, first compound 0.949 µM): 35%
viability, T/C (second compound 10 µM, first compound 3 µM): 32.9%
